Assay results published in ChEMBL document CHEMBL4433200, “Another look at phenolic compounds in cancer therapy the effect of polyphenols on ubiquitin-proteasome system” (Eur J Med Chem, 2019).
≈ marks a conversion by molar mass, not a printed value.

Assays:
[1] = target: T1, Proteasome subunit beta type-5 (Rattus norvegicus, UniProt P28075); test: Inhibition of chymotrypsin-like activity of rat liver 26 proteasome assessed as decrease in fluorescence using succinyl-Leu-Leu-Val-Tyr-4-methylcoumaryl-7-amide as substrate preincubated for 30 mins followed by addition of substrate and measured after 1 hr by fluorescence based method
T1 sequence (P28075 whole entry): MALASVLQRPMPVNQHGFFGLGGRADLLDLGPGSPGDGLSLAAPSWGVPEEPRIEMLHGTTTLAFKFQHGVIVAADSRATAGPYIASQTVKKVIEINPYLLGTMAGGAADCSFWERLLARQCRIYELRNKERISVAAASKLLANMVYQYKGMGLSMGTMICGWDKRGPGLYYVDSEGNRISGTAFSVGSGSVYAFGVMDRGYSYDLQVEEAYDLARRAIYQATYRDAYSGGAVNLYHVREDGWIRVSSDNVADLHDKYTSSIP

[2] = target: T2, Proteasome Macropain subunit MB1 (Homo sapiens, UniProt P28074); test: Inhibition of chymotrypsin-like activity of purified human erythrocyte 20S proteasome assessed as decrease in AMC hydrolysis using Suc-LLVY-AMC as substrate preincubated for 10 mins and measured by fluorescence based method
T2 sequence (P28074 whole entry): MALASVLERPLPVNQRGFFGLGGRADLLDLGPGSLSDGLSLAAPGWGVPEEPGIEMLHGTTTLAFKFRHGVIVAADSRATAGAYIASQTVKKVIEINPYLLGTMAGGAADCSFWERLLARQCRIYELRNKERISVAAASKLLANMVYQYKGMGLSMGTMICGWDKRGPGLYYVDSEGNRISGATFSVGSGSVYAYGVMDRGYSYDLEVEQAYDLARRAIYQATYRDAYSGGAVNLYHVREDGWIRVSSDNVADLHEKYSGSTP

[3] = target: T2, Proteasome Macropain subunit MB1; test: Inhibition of chymotrypsin-like activity of purified human 20S proteasome assessed as decrease in AMC hydrolysis using Suc-Leu-Leu-Val-Tyr-AMC as substrate incubated for 30 mins by fluorometric analysis
[4] = target: T2, Proteasome Macropain subunit MB1; test: Inhibition of chymotrypsin-like activity of purified human 20S proteasome expressed in human Jurkat cells assessed as decrease in AMC hydrolysis using Suc-Leu-Leu-Val-Tyr-AMC as substrate incubated for 2 hrs by fluorescence based method
[5] = target: T2, Proteasome Macropain subunit MB1; test: Inhibition of chymotrypsin-like activity of human 26S proteasome in human Jurkat cells assessed as decrease in AMC hydrolysis using Z-Gly-Gly-Leu-AMC as substrate after 24 hrs by fluorescence based method; type: cell-based
[6] = Inhibition of chymotrypsin-like activity of rabbit 20S proteasome assessed as AMC hydrolysis using Suc-LLVY-AMC as substrate incubated for 2hrs by fluorescence based method; parameters: species or system Oryctolagus cuniculus
[7] = target: T2, Proteasome Macropain subunit MB1; test: Inhibition of chymotrypsin-like activity of human 26S proteasome extracted from human Jurkat cells assessed as decrease in AMC hydrolysis using […] as substrate after 90 mins by fluorometric analysis; type: cell-free
[8] = target: T2, Proteasome Macropain subunit MB1; test: Inhibition of chymotrypsin-like activity of human 26S proteasome in human Jurkat cells assessed as decrease in AMC hydrolysis using […] as substrate preincubated for 12 hrs followed by addition of substrate and measured after 2 hrs by fluorometric analysis; type: cell-based
[9] = Inhibition of chymotrypsin-like activity of purified rabbit 20S proteasome assessed as decrease in AMC hydrolysis using Suc-Leu-Leu-Val-Tyr-AMC as substrate incubated for 30 mins by fluorescence based method; parameters: species or system Oryctolagus cuniculus
[10] = target: T2, Proteasome Macropain subunit MB1; test: Inhibition of chymotrypsin-like activity of human 26S proteasome extracted from human LNCap cells assessed as decrease in AMC hydrolysis using Suc-Leu-Leu-Val-Tyr-AMC as substrate incubated for 60 mins by fluorescence based method; type: cell-free

Work on `COc1cc(O)c(C(=O)c2ccc(O)cc2)c(O)c1` yielded an IC50 [1] of over 0.25 µg/mL.
In the case of `COc1ccc2c(c1)O[C@H]1c3ccc(O)cc3OC[C@@H]21`, the IC50 [2] is reported as over 100 µM.
Compound `Oc1ccc(CC2COc3cc(O)ccc3C2)cc1` (configuration not stated) has an IC50 [1] of 0.06 µg/mL (≈ 0.234 µM).
For `C=CC(/C=C\c1ccc(O)cc1)c1ccc(O)cc1` (configuration not stated), the IC50 [1] was 0.018 µg/mL (≈ 0.0713 µM).
Work on `O=C(O[C@@H]1Cc2c(O)cc(O)cc2O[C@H]1c1ccc(O)c(O)c1)c1cc(O)c(O)c(O)c1` [(-)-CATECHINGALLATE] yielded an IC50 [3] of 0.124 µM.
In the case of `O=c1cc(-c2ccc(O)cc2)oc2cc(O)cc(O)c12` [APIGENIN], the IC50 [4] is reported as 1.8 to 2.3 µM and the IC50 [5] is reported as 1 to 1.9 µM.
`COc1cc(O)ccc1CCCc1ccc(O)cc1` [BROUSSONIN B] gave an IC50 [1] of 0.046 µg/mL (≈ 0.178 µM).
In the case of `O=c1cc(-c2ccccc2)oc2cc(O)cc(O)c12` [CHRYSIN], the IC50 [4] is reported as 4.9 µM and the IC50 [5] is reported as 6.1 µM.
Compound `COc1cc(/C=C/C(=O)CC(=O)/C=C/c2ccc(O)c(OC)c2)ccc1O` [CURCUMIN] has an IC50 [6] of 1.85 µM.
In the case of `O=c1c(-c2ccc(O)cc2)coc2cc(O)ccc12` [DAIDZEIN], the IC50 [2] is reported as over 100 µM.
For `O=C(O[C@@H]1Cc2c(O)cc(O)cc2O[C@@H]1c1ccc(O)c(O)c1)c1cc(O)c(O)c(O)c1` [EPICATECHIN GALLATE], the IC50 [3] was 0.194 µM.
`Oc1cc(O)c2c(c1)O[C@H](c1cc(O)c(O)c(O)c1)[C@H](O)C2` [EPIGALLOCATECHIN] gave an IC50 [3] of 1200 µM.
For `O=C(O[C@@H]1Cc2c(O)cc(O)cc2O[C@@H]1c1cc(O)c(O)c(O)c1)c1cc(O)c(O)c(O)c1` [EPIGALOCATECHIN GALLATE], the IC50 [3] was 0.086 to 0.194 µM, the IC50 [7] was 1 to 10 µM and the IC50 [8] was 18 µM.
`O=C1C[C@@H](c2ccc(O)c(O)c2)Oc2cc(O)cc(O)c21` [ERIODICTYOL] gave an IC50 [4] of 16.2 µM and an IC50 [5] of 14.6 µM.
`COc1ccc(-c2coc3cc(O)ccc3c2=O)cc1` [FORMONONETIN] showed an IC50 [2] of over 100 µM.
With `O=C(O)c1cc(O)c(O)c(O)c1` [GALLIC ACID] the IC50 [3] was 7100 µM.
In the case of `O=C(O[C@@H]1Cc2c(O)cc(O)cc2O[C@H]1c1cc(O)c(O)c(O)c1)c1cc(O)c(O)c(O)c1` [GALLOCATECHIN GALLATE], the IC50 [3] is reported as 0.187 µM.
`O=c1c(-c2ccc(O)cc2)coc2cc(O)cc(O)c12` [GENISTEIN] showed an IC50 [2] of 9.26 µM, an IC50 [9] of 26 µM and an IC50 [10] of 65 to 70 µM.
Compound `O=C(/C=C/c1ccc(O)cc1)c1ccc(O)cc1O` [ISOLIQUIRITIGENIN] has an IC50 [2] of 4.88 µM.
`O=c1c(O)c(-c2ccc(O)cc2)oc2cc(O)cc(O)c12` [KAEMPFEROL] gave an IC50 [4] of 10.5 µM and an IC50 [5] of 11 µM.
`O=C1C[C@@H](c2ccc(O)cc2)Oc2cc(O)ccc21` [LIQUIRTIGENIN] showed an IC50 [2] of over 100 µM.
`O=c1cc(-c2ccc(O)c(O)c2)oc2cc(O)cc(O)c12` [LUTEOLIN] showed an IC50 [4] of 1.5 µM and an IC50 [5] of 1.3 µM.
In the case of `O=c1c(O)c(-c2cc(O)c(O)c(O)c2)oc2cc(O)cc(O)c12` [MYRICETIN], the IC50 [4] is reported as 10 µM and the IC50 [5] is reported as 12 µM.
For `O=C1C[C@@H](c2ccc(O)cc2)Oc2cc(O)cc(O)c21` [NARINGENIN], the IC50 [4] was 48.8 µM and the IC50 [5] was 41.6 µM.
`O=c1c(O)c(-c2ccc(O)c(O)c2)oc2cc(O)cc(O)c12` [QUERCETIN] showed an IC50 [4] of 3.5 µM and an IC50 [5] of 2 µM.
